Tests used:
[1] = target: T1, Phosphatidylinositol 4,5-bisphosphate 3-kinase catalytic subunit delta isoform (Homo sapiens, UniProt O00329); test: Inhibition of PI3Kdelta in human JeKo1 cells assessed as reduction in Akt phosphorylation at Ser473 residue preincubated for 60 mins followed by Anti-IgM stimulation for 10 mins by TR-FRET assay; assay type: cell-based
T1 sequence (O00329 whole entry): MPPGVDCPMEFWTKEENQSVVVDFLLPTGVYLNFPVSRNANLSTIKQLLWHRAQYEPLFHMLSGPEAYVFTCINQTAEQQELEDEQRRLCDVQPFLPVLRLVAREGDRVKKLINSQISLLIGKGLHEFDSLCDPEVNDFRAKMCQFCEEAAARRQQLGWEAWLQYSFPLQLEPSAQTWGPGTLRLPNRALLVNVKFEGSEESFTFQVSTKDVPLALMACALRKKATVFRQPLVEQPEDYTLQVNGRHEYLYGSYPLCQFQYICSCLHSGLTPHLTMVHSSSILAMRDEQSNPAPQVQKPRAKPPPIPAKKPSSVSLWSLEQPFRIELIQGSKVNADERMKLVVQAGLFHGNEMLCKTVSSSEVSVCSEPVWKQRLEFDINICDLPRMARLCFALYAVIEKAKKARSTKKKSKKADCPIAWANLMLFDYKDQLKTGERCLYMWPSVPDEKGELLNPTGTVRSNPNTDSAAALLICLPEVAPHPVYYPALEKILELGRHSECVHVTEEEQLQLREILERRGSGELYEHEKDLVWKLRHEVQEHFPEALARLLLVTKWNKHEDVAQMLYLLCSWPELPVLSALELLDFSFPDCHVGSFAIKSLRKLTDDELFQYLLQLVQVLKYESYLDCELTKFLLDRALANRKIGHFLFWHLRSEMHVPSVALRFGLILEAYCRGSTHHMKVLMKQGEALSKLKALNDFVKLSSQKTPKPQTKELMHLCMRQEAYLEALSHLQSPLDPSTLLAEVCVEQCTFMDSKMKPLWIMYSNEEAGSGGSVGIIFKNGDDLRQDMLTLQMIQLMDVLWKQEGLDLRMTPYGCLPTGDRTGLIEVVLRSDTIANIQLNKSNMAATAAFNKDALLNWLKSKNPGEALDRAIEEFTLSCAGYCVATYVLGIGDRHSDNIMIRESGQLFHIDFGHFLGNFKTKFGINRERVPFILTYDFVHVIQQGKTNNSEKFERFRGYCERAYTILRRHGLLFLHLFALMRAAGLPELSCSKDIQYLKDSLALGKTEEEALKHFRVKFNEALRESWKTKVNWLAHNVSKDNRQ

[2] = Dissociation constant, acidic pKa of compound; assay type: physicochemical
[3] = Dissociation constant, basic pKa of compound; assay type: physicochemical
[4] = target: Phosphatidylinositol 4,5-bisphosphate 3-kinase catalytic subunit gamma isoform (Homo sapiens, UniProt P48736); test: Inhibition of recombinant human His6-tagged PI3Kgamma (144 to 1102 residues) using DiC8-PIP2 as substrate preincubated for 15 mins followed by substrate addition measured after 60 mins by ADP-Glo assay
[5] = Half life in iv or po dosed rat; assay type: ADME, organism-based; settings: in vivo
[6] = Terminal half life in it dosed rat lung by LC-MS/MS analysis; assay type: ADME, organism-based; settings: inhaled or intranasal, read-out: beta t1/2 (converted)
[7] = Metabolic stability in it dosed rat lungs assessed as compound remaining at 24 hrs post dose by LC-MS/MS analysis; assay type: ADME, organism-based; settings: lung, inhaled or intranasal, read-out: Stability
[8] = Clearance in iv dosed rat; assay type: ADME, organism-based; settings: in vivo
Mus musculus = test: In vivo inhibition of PI3Kdelta in ovalbumin-sensitized OT-2 transgenic C57BL/6-Tg-(Tcratcrb)425Cbn/Crl mouse assessed as reduction in S6RP phosphorylation at Ser235/236 residues in bronchoalveolar lung lavage administered […] 18 hrs prior to anti-CD3 stimulation measured after 6 hrs; assay type: functional, organism-based
[9] = Lipophilicity, log D of the compound; assay type: physicochemical; settings: octanol/water
PI3K p110 beta/p85 alpha = PI3K p110 beta/p85 alpha (Homo sapiens, UniProt P42338); test: Inhibition of recombinant human His6-tagged PI3K p110beta/p85alpha using DiC8-PIP2 as substrate preincubated for 15 mins followed by substrate addition measured after 60 mins by ADP-Glo assay; assay type: protein-complex assay
PI3K p110 beta/p85 alpha, sequence (P27986 whole entry): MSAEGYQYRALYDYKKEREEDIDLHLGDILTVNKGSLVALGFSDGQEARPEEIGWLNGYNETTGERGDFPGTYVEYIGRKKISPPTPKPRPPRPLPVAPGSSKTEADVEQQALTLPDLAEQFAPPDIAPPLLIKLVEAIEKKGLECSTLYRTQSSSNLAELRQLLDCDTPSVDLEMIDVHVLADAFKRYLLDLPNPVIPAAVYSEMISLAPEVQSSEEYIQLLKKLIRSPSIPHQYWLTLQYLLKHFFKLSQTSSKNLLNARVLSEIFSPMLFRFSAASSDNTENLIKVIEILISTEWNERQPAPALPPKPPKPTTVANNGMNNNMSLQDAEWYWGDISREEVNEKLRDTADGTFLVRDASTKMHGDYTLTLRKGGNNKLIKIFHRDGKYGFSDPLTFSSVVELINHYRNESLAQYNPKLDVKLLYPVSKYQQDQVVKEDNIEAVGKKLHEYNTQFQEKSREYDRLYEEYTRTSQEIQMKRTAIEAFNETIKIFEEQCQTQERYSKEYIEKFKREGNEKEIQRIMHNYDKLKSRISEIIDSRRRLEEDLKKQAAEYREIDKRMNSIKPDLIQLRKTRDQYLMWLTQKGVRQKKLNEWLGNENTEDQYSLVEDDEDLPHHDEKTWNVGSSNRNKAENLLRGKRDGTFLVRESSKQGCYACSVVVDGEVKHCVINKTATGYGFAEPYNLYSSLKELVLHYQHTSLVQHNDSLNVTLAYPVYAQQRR
PI3K p110 beta/p85 alpha, sequence (P42338 whole entry): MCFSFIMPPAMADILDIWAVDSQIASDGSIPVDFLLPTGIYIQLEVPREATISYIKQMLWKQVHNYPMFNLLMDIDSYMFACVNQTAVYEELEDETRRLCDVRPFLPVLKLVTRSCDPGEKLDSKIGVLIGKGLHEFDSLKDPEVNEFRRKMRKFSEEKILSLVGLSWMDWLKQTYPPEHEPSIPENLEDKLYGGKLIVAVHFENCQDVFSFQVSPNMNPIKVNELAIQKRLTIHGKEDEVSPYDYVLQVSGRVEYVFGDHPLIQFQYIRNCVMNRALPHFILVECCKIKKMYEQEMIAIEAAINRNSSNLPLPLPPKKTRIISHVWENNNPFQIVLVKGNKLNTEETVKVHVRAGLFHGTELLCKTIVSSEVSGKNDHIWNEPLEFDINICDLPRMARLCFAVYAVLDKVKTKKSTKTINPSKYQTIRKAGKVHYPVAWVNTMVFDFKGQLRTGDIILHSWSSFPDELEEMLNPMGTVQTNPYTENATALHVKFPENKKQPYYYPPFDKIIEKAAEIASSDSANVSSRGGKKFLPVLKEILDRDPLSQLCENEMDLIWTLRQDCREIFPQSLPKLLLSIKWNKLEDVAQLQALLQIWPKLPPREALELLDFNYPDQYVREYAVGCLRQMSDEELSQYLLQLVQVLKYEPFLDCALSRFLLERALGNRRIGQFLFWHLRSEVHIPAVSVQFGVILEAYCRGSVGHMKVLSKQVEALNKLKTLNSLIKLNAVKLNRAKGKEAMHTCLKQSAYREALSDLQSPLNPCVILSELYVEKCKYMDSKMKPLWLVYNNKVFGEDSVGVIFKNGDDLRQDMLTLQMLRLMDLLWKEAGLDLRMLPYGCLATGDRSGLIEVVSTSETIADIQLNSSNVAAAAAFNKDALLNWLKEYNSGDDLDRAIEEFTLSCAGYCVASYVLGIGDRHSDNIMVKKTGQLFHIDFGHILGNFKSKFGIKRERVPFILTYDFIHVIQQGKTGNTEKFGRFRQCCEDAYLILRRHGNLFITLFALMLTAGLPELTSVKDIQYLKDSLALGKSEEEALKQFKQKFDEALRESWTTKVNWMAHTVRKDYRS

[10] = Volume of distribution at steady state in iv or po dosed rat; assay type: ADME, organism-based; settings: in vivo, read-out: Vdss
hERG (KCNH2) = hERG (KCNH2) (Homo sapiens, UniProt Q12809); test: Inhibition of human ERG at 11 uM relative to control
hERG (KCNH2), sequence (Q12809 whole entry): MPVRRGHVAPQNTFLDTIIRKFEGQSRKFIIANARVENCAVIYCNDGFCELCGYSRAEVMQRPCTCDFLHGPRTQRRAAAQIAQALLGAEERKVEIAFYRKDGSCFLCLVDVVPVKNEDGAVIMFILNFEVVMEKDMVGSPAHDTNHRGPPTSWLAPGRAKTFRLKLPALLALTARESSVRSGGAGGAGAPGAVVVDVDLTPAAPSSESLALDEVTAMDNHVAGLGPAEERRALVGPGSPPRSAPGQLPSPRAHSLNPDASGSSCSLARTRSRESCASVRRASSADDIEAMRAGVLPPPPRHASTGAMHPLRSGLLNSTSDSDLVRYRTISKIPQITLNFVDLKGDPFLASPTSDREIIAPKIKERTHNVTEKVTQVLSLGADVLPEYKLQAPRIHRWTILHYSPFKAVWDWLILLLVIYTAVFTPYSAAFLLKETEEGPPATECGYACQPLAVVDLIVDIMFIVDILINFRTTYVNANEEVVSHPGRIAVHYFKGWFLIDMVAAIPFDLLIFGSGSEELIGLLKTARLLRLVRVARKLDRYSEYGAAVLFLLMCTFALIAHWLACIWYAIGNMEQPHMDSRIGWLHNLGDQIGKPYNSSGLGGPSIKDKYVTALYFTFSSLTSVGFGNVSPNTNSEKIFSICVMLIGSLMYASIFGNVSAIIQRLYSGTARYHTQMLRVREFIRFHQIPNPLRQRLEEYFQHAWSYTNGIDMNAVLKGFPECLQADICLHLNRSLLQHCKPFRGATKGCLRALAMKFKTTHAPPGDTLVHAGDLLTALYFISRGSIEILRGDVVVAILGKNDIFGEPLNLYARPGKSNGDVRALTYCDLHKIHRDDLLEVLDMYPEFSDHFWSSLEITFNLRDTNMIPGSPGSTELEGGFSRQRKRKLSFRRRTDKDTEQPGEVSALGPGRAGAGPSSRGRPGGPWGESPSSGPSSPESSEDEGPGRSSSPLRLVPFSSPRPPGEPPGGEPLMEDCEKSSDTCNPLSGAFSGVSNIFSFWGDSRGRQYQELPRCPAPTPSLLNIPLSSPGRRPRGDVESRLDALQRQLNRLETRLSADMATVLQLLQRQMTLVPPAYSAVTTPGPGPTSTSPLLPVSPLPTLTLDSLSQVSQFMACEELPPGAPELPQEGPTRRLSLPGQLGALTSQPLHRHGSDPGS

[11] = Oral bioavailability in rat; assay type: ADME, organism-based; settings: in vivo
[12] = target: PI3-kinase p110-delta/p85-alpha (Homo sapiens, UniProt O00329); test: Inhibition of recombinant human His6-tagged PI3K p110delta/p85alpha using DiC8-PIP2 as substrate preincubated for 15 mins followed by substrate addition measured after 60 mins by ADP-Glo assay; assay type: protein-complex assay
PI3-kinase p110-delta/p85-alpha, sequence (P27986 whole entry, one chain of several): as the sequence (P27986 whole entry) above

[13] = target: PI3-kinase p110-alpha/p85-alpha (Homo sapiens, UniProt P42336); test: Inhibition of recombinant human His6-tagged PI3K p110alpha/p85alpha using DiC8-PIP2 as substrate preincubated for 15 mins followed by substrate addition measured after 60 mins by ADP-Glo assay; assay type: protein-complex assay
PI3-kinase p110-alpha/p85-alpha, sequence (P27986 whole entry): as above
PI3-kinase p110-alpha/p85-alpha, sequence (P42336 whole entry): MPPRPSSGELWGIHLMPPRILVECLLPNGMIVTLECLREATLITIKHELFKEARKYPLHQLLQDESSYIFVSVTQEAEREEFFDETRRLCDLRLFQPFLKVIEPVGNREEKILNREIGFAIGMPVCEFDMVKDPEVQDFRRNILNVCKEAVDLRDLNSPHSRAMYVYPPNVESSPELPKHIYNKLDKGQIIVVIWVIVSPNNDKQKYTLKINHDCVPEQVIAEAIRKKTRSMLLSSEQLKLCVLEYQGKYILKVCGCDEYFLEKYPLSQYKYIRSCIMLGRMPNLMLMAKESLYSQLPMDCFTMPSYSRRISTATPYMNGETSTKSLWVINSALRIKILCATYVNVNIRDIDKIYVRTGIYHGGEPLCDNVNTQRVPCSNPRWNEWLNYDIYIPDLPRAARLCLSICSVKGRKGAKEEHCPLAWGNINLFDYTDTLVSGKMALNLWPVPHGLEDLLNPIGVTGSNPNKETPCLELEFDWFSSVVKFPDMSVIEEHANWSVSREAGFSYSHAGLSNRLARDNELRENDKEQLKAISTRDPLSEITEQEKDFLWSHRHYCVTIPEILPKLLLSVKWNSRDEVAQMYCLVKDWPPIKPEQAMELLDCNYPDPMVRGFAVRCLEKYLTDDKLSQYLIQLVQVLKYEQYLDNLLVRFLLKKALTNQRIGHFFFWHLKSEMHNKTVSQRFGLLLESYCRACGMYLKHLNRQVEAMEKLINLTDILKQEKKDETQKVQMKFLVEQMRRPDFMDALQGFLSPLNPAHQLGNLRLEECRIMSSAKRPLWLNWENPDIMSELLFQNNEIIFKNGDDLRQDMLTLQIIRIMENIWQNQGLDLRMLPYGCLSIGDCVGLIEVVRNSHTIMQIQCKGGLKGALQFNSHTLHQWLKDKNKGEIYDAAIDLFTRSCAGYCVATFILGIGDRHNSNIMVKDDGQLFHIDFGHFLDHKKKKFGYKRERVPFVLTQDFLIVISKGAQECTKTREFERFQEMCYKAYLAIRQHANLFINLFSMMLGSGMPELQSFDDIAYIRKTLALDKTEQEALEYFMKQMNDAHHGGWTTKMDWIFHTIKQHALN

Question: For `Cc1csc2cc([C@H](C)Nc3ncnc(N)c3C#N)c(-c3cccc(CN4CCC(N(C)CC(C)C)CC4)c3)c(=O)n12`, which IC50 [1] is on record?
Answer: 0.00126 µM

Question: And the pKa [2]?
Answer: 9.7

Question: And the pKa [3]?
Answer: 6.8

Question: What about the IC50 [4] of the same molecule?
Answer: ≥ 0.2 µM

Question: And the half-life [5]?
Answer: 11 h

Question: And the half-life [6]?
Answer: 9.9 h

Question: What about the remaining at 24 h [7] of the same molecule?
Answer: 2.8%

Question: And the clearance [8]?
Answer: 150 mL/min/kg

Question: And the inhibition (Mus musculus)?
Answer: Dose-dependent effect

Question: What about the logD [9] of the same molecule?
Answer: 1.7

Question: And the IC50 (PI3K p110 beta/p85 alpha)?
Answer: 0.0794 µM

Question: And the Vd [10]?
Answer: 88 L/kg

Question: What about the inhibition at 11 µM (hERG (KCNH2)) of the same molecule?
Answer: < 20%

Question: What about the bioavailability [11] of the same molecule?
Answer: < 1%

Question: And the IC50 [12]?
Answer: 0.000631 µM

Question: And the IC50 [13]?
Answer: ≥ 0.631 µM

Question: For `Cc1csc2cc([C@H](C)Nc3ncnc(N)c3C#N)c(-c3cccc(CN4CCC(N(C)C)CC4)c3)c(=O)n12`, which IC50 [1] is on record?
Answer: 0.01 µM

Question: And the pKa [2]?
Answer: 9.5

Question: And the pKa [3]?
Answer: 6.5

Question: What about the IC50 [4] of the same molecule?
Answer: ≥ 0.2 µM

Question: And the half-life [5]?
Answer: 12 h

Question: What about the half-life [6] of the same molecule?
Answer: 23.2 h

Question: What about the remaining at 24 h [7] of the same molecule?
Answer: 4.8%

Question: What about the clearance [8] of the same molecule?
Answer: 57 mL/min/kg

Question: What about the inhibition (Mus musculus) of the same molecule?
Answer: Dose-dependent effect

Question: What about the logD [9] of the same molecule?
Answer: 0.5

Question: And the IC50 (PI3K p110 beta/p85 alpha)?
Answer: 0.0631 µM

Question: And the Vd [10]?
Answer: 12 L/kg

Question: What about the inhibition at 11 µM (hERG (KCNH2)) of the same molecule?
Answer: < 20%

Question: And the bioavailability [11]?
Answer: < 1%

Question: And the IC50 [12]?
Answer: 0.000501 µM

Question: And the IC50 [13]?
Answer: ≥ 0.631 µM
